Measured values reported in EP2771349B1, “BIO[…] FOR DETERMINATION OF PEPTIDE BINDING” (Iogenetics, LLC., priority 2011, dated 2013).

Test: Principal components analysis of amino acid physical properties from 31 studies
Conditions: for Prin1: first principal component, index of amino acid polarity or hydrophobicity, most hydrophobic highest; for Prin2: second principal component, related to size or volume, smallest has highest score; for Prin3: third principal component
Text: In some cases, principal components of amino acids are utilized to accurately predict binding affinities of sub-sequences of amino acids within the proteins to all MHC-I and MHC-II receptors. Principal Components Analysis is a mathematical process that is used in many different scientific fields and which reduces the dimensionality of a set of data. (Bishop, C.M., Neural Networks for Pattern Recognition. Oxford University Press, Oxford 1995. Bouland, H. and Kamp,Y., Biological Cybernetics 1988. 59: 291-294.). Derivation of principal components is a linear transformation that locates directions of maximum variance in the original input data, and rotates the data along these axes. Typically, the first several principal components contain the most information. Principal components is particularly useful for large datasets with many different variables. Using principal components provides a way to picture the structure of the data as completely as possible by using as few variables as possible. For n original variables, n principal components are formed as follows: The first principal component is the linear combination of the standardized original variables that has the greatest possible variance. Each subsequent principal component is the linear combination of the standardized original variables that has the greatest possible variance and is uncorrelated with all previously defined components. Further, the principal components are scale-independent in that they can be developed from different types of measurements. For example, datasets from HPLC retention times (time units) or atomic radii ([…]) can be consolidated to produce principal components. Another characteristic is that principal components are weighted appropriately for their respective contributions to the response and one common use of principal components is to develop appropriate weightings for regression parameters in multivariate regression analysis. Outside the field of immunology, principal components analysis (PCA) is most widely used in regression analysis. Initial tests were conducted using the principal components in a multiple regression partial least squares (PLS) approach (Wold, S., Sjorstrom,M., and Eriksson,L., Chemometrics and Intelligent Laboratory Systems 2001. 58: 109-130.). Principal component analysis can be represented in a linear network. PCA can often extract a very small number of components from quite high-dimensional original data and still retain the important structure.
Accordingly, in some cases physical properties of amino acids are used for subsequent analysis. The compiled physical properties are available at a proteomics resource website (expasy.org/tools/protscale.html). In some cases, the data for each of the 20 different amino acids from these studies are tabulated, resulting in 20 x 31 different datapoints, each providing a unique estimate of a physical characteristic of that amino acid. The power of principal component analysis lies in the fact that the results of all of these studies can be combined to produce a set of mathematical properties of the amino acids which have been derived by a wide array of independent methodologies. The patterns derived in this way are similar to those of Wold et. al. but the absolute numbers are different. The physicochemical properties derived in the studies used for this calculation are shown in (Table 2). […] All subsequent work described herein is based on use of the first three principal components.
From this it can be seen that the first principal component (Prin1) is an index of amino acid polarity or hydrophobicity; the most hydrophobic amino acids have the highest numerical value. The second principal component (Prin2) is related to the size or volume of the amino acid, with the smallest having the highest score. […]

With `NCCCCC(N)C(=O)O` (stereo not drawn) [K] the Prin1 was -6.68, the Prin2 was -1.32 and the Prin3 was 1.16.

In the case of `NC(CCC(=O)O)C(=O)O` (stereo not drawn) [E], the Prin1 is reported as -5.70, the Prin2 is reported as 0.34 and the Prin3 is reported as -1.46.

With `N=C(N)NCCCC(N)C(=O)O` (stereo not drawn) [R] the Prin1 was -6.30, the Prin2 was -2.93 and the Prin3 was -0.91.

Work on `NC(=O)CCC(N)C(=O)O` (stereo not drawn) [Q] yielded a Prin1 of -3.97, a Prin2 of -0.47 and a Prin3 of 0.15.

With `CC(O)C(N)C(=O)O` (stereo not drawn) [T] the Prin1 was -1.42, the Prin2 was 0.80 and the Prin3 was 0.94.

In the case of `O=C(O)C1CCCN1` (stereo not drawn) [P], the Prin1 is reported as -0.03, the Prin2 is reported as -0.36 and the Prin3 is reported as 1.87.

With `NC(Cc1c[nH]cn1)C(=O)O` (stereo not drawn) [H] the Prin1 was -2.55, the Prin2 was -1.00 and the Prin3 was -1.94.

Molecule `NCC(=O)O` [G] has a Prin1 of -0.76, a Prin2 of 3.08 and a Prin3 of 1.21.

With `NC(=O)CC(N)C(=O)O` (stereo not drawn) [N] the Prin1 was -4.35, the Prin2 was 0.21 and the Prin3 was 0.30.

Molecule `NC(CC(=O)O)C(=O)O` (stereo not drawn) [D] has a Prin1 of -6.04, a Prin2 of 0.03 and a Prin3 of -0.18.

Molecule `CC(N)C(=O)O` (stereo not drawn) [A] has a Prin1 of 0.72, a Prin2 of 2.48 and a Prin3 of 1.42.
